In patent publication US20260060957A1, “COMPOUNDS AND COMPOSITIONS USEFUL FOR TREATMENT OF PROLIFERATIVE DISEASE OR DISORDER” (University of Houston System, priority 2023, published 2026):

Assays:
Assay type in all cases: cell-based, human
BE stem cells = experiment: Survival of Barrett's esophagus (BE) stem cells, high-throughput screen and dose-response
Text: The present example describes methods used for testing the efficacy of compounds described herein. The selective growth of stem cells of cancers, of their precursor lesions, and of normal and chronically diseased epithelial tissues is described in the references below. In brief, biopsied tissues are reduced to single cell suspensions and plated onto lawns of irradiated 3T3-J2 feeder cells in specialized StemEcho media and libraries of colonies are evident in 7-10 days. Single cell-derived clones are generated by single cell FACS sorting to 384 well plates and wells with individual colonies are expanded, analyzed by molecular genetics, and grown as discrete clones.
After 2-5 days, the cells are fixed using paraformaldehyde and the human cells are labelled with human-specific antibodies followed by fluorochrome-labelled secondary antibodies. Human cell numbers are quantified via high-throughput imaging technology (CellInsight CX7 LED, Thermo), and data analyzed by Excel.
To learn more about the relative efficacy of these IAP antagonists in a synthetic lethal combination with ponatinib, we compared their effects in dose-response assays in vitro against BE stem cells. […]

[1] = test system: RIPK1 S320/S166 phosphorylation, cIAP1, cIAP2, cleaved Caspase 3 in LGD stem cells; experiment: Western blot of LGD stem cells (RIPK1 phosphorylation, cIAP1/cIAP2, cleaved Caspase 3); conditions: ponatinib 300 nM, 7532N 10 nM, 16 hr per FIG. 42j
[2] = test system: cleaved caspase 3 (c-Casp3); experiment: Western blot of stem cells exposed to IAP antagonists and ponatinib (cleaved caspase 3); conditions: BE stem cells exposed to IAP antagonist and ponatinib; six-hour exposure; FIG. 42c
Text: Based on the properties of diverse IAP antagonists in combination with ponatinib towards BE stem cells, synthetic chemistry was employed to expand the repertoire of IAP antagonists available for these studies. A squaramide linker strategy was chosen for generating bivalent IAP antagonists based on its planar structure and separation of the headgroups that contain the peptide […] domains that interact with cIAP1, cIAP2, and XIAPs, and screened them in dose-response assays against BE stem cells in the presence and absence of ponatinib (FIG. 42d).

`Cc1ccc(C(=O)Nc2ccc(CN3CCN(C)CC3)c(C(F)(F)F)c2)cc1C#Cc1cnc2cccnn12` [ponatinib] was tested, and the “Inhibition of BE stem cells” value (BE stem cells; eight patient-derived BE stem cells, FIG. 40d) was 20%.
For `CN[C@@H](C)C(=O)N[C@H](C(=O)N1CCC[C@H]1C(=O)N[C@H]1c2ccccc2C[C@H]1OCCOCCNc1c(NCCOCCO[C@@H]2Cc3ccccc3[C@@H]2NC(=O)[C@@H]2CCCN2C(=O)[C@@H](NC(=O)[C@H](C)NC)C2CCCCC2)c(=O)c1=O)C1CCCCC1` [Compound I-1], the “RIPK1 phosphorylation, cIAP1/cIAP2 and apoptosis in LGD stem cells, western blot” value [1] was “degradation of cIAP1 and cIAP2 without inducing cleaved Caspase 3”.
For `CN[C@@H](C)C(=O)N[C@H]1CCCC[C@H]2CC[C@@H](C(=O)N[C@@H](c3ccccc3)c3cn(CCCCc4ccc(CCCCn5cc([C@@H](NC(=O)[C@@H]6CC[C@@H]7CCCC[C@H](NC(=O)[C@H](C)NC)C(=O)N76)c6ccccc6)nn5)cc4)nn3)N2C1=O` [SM-164], the “Induction of cleaved caspase 3 (c-Casp3), western blot” value [2] was “induced a cleaved caspase 3”.
With `CN[C@@H](C)C(=O)N[C@H](C(=O)N1CCC[C@H]1C(=O)N[C@H]1c2ccccc2C[C@H]1OCC#CC#CCO[C@@H]1Cc2ccccc2[C@@H]1NC(=O)[C@@H]1CCCN1C(=O)[C@@H](NC(=O)[C@H](C)NC)C1CCCCC1)C1CCCCC1` [AZD5582] the “Induction of cleaved caspase 3 (c-Casp3), western blot” value [2] was “induced a cleaved caspase 3”.
With `Cc1cn(-c2cc(NC(=O)c3ccc(C)c(Nc4nccc(-c5cccnc5)n4)c3)cc(C(F)(F)F)c2)cn1` [nilotinib] the “Identification in high-throughput screens” value (BE stem cells; screens against BE and ESO stem cells) was “not identified in our screens”.
